Results as given in PMC6155603, “Synthesis and Preliminary Biological Evaluation of Indol-3-yl-oxoacetamides as Potent Cannabinoid Receptor Type 2 Ligands” (Molecules : A Journal of Synthetic Chemistry and Natural …, 2017).

Legend:
[1] = molecular target: CB1; conditions: reported value of lead molecule; cited from earlier work
[2] = molecular target: CB2; conditions: reported value of lead molecule; cited from earlier work
[3] = molecular target: T1, human CB2 (Homo sapiens, UniProt P34972); assay: radioligand inhibition binding assay, [^3H]WIN55.212-2, membranes of CHO cells stably transfected with human CB2
T1 construct: host or cells: CHO cells (stably transfected), membrane homogenates
T1 sequence (P34972 whole entry): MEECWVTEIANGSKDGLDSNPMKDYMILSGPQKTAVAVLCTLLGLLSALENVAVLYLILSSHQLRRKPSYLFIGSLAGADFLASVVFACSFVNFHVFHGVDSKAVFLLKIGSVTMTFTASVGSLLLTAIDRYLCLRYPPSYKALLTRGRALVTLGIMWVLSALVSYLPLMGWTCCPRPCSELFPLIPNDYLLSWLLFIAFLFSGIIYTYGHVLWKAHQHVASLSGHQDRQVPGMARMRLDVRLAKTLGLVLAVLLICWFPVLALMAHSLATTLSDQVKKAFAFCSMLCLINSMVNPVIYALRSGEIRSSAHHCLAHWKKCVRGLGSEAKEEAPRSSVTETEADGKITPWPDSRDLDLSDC
Procedure: Non-specific binding was determined using 10 µM WIN55.212-2. The individual IC50 values were determined by non-linear curve fitting using GraphPad Prism software (version 3.0, GraphPhad, San Diego, CA, USA), and the corresponding Ki values calculated using the Cheng–Prusoff equation [44]. […] Additionally, the binding affinities towards the CB1 receptor were investigated for compounds 6 and 8 by using [^3H]CP55.40 as competitive radioligand.

[4] = molecular target: human CB1 receptors (Homo sapiens, UniProt P21554); assay: CB1 binding assay with [^3H]CP55.40 as competitive radioligand; conditions: no displacement of radioligand up to this concentration
human CB1 receptors, sequence (P21554 whole entry): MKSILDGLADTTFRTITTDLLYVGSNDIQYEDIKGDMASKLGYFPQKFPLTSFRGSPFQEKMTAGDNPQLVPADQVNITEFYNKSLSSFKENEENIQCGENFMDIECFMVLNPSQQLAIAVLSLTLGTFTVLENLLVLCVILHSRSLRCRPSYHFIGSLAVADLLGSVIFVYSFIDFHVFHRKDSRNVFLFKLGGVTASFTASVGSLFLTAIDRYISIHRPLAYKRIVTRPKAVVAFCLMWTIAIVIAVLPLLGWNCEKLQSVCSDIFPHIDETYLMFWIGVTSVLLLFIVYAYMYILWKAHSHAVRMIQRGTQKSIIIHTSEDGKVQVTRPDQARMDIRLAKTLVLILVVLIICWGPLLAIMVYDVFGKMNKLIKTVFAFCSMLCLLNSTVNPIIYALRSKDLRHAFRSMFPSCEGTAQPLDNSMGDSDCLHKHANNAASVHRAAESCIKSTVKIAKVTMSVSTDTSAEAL
Procedure: Non-specific binding was determined using 10 µM WIN55.212-2. The individual IC50 values were determined by non-linear curve fitting using GraphPad Prism software (version 3.0, GraphPhad, San Diego, CA, USA), and the corresponding Ki values calculated using the Cheng–Prusoff equation [44]. […] Additionally, the binding affinities towards the CB1 receptor were investigated for compounds 6 and 8 by using [^3H]CP55.40 as competitive radioligand. None of the two derivatives could displace [^3H]CP55.40 from the human CB1 receptors up to a concentration of 100 µM. Thus, within this series of fluoro-substituted compounds, the N-alkyl chain of compound 8 is most suitable to obtain high affinity binding at the CB2 receptor, combined with an excellent selectivity against the CB1 receptor subtype.

Compound | Ki [1] [nM] | Ki [2] [nM] | Ki [3] [nM] | concentration up to which [^3H]CP55.40 was not displaced from human CB1 receptors [4] [µM]
CCCCCn1cc(C(=O)C(=O)NC23CC4CC(CC(C4)C2)C3)c2cc(-c3ccco3)ccc21 [compound 5, N-(Adamantan-1-yl)-2-(5-(furan-2-yl)-1-pentyl-1H-indol-3-yl)-2-oxoacetamide] | 345 | 0.37 | 8.5 | 
O=C(NC12CC3CC(CC(C3)C1)C2)C(=O)c1cn(CCOCCOCCF)c2ccc(-c3ccco3)cc12 [compound 6, N-(Adamantan-1-yl)-2-(1-(2-(2-(2-fluoroethoxy)ethoxy)ethyl)-5-(furan-2-yl)-1H-indol-3-yl)-2-oxoacetamide] |  |  | 27.3 | > 100
COCCn1cc(C(=O)C(=O)NC23CC4CC(CC(C4)C2)C3)c2cc(-c3ccco3)ccc21 [compound 7, N-(Adamantan-1-yl)-2-(5-(furan-2-yl)-1-(2-methoxyethyl)-1H-indol-3-yl)-2-oxoacetamide] |  |  | 16.1 | 
O=C(NC12CC3CC(CC(C3)C1)C2)C(=O)c1cn(CCOCCF)c2ccc(-c3ccco3)cc12 [compound 8, N-(Adamantan-1-yl)-2-(1-(2-(2-fluoroethoxy)ethyl)-5-(furan-2-yl)-1H-indol-3-yl)-2-oxoacetamide] |  |  | 6.2 | > 100
